Data set [1] concerns hyperactivity induced by scopolamine. Put plainly: Inhibition of hyperactivity induced by scopolamine. It is filed as in vivo, rats (male Sprague-Dawley SPF). The settings on record: administered more than 15 minutes before the measurements; in words.
Data set [2] has as its system effects of scopolamine on the EEG, band from 6.4 to 9.6 Hz. Put plainly: Inhibition of the effects of scopolamine on the electroencephalogram (EEG). The class given is in vivo, rats (male albino Sprague-Dawley SPF). As to conditions: for Inhibition of the effects of scopolamine on the band from 6.4 to 9.6 Hz in the EEG: rats, i.p. at the dose (mg/kg) of the line in Table IV, scopolamine 0.5 mg/kg i.p. As for the experimental part:
Male albino Sprague-Dawley SPF rats (160 to 200 g) are used in this test.
When the animals are 3 months old, 5 cortical electrodes are implanted permanently, aseptically and under a general anesthesia: one inert electrode, one left and one right frontal electrode, and one left and one right occipital electrode (P. ETEVENON, loc. cit.).
The test is carried out when the animals are about 15 months old. In the meantime, the animals are kept in individual cages. They are given water and food ad libitum and are subjected to a regular daily cycle comprising a period of darkness between 6 o'clock in the evening and 6 o'clock in the morning. At the same time, the animals are progressively acclimatized to the cages of the sound-proof cabin which they will subsequently occupy for recording of the electroencephalograms, as well as to the experimental conditions, by intraperitoneal administration of placebo. The products are administered immediately before the EEG is recorded.
The rats are divided into groups of 8 animals and 16 samples of the EEG spectra are recorded over 5 seconds (two EEG spectra per animal). The spectra obtained are then analyzed by computer (rapid Fourier transform), which enables the average of the 16 measurements performed to be determined for each group and the overall intensity of the EEG spectrum and the distribution of this intensity (in %) in the various frequency bands to be deduced for each animal.
This operation (recording of the spectra) is repeated 9 times (total duration: 121 minutes).

The test system of data set [3] is learning of the avoidance reflex. Kind of data set: Multiple-trial passive avoidance: learning. The settings on record: i.p. at the dose (mg/kg) of the line in Table V, 30 min before test; criterion 180 seconds on the mat. It is filed as in vivo, rats (male Sprague-Dawley). How it is done: To evaluate whether a compound can promote learning, the following test is carried out.
This experiment is repeated until the animal remains on the rubber mat for at least 180 seconds in order to avoid the electric shock. The learning is expressed by the average number of trials needed to reach a period of 180 seconds remaining on the mat.
A period of remaining on the rubber mat of 180 seconds is regarded as being the maximum performance which can be realized by the animal to avoid the electric shock. Rats which remain on the mat for this period have acquired the avoidance reflex and are replaced in their original cage without receiving the electric shock.
group 1 receives an intraperitoneal injection of physiological salt solution:
group 2 receives an intraperitoneal injection of the compound to be tested:
Columns 3 and 4 show the results obtained in the test used to evaluate the learning. The figures indicate the average number of trials needed for a control animal (group 1) or an animal treated (group 2) with the compound to learn to remain on the rubber mat for 180 seconds in order to avoid the electric shock. The results were analyzed by the Student test.

In data set [4] the test system is amnesia induced by scopolamine. Put plainly: Multiple-trial passive avoidance: mnemic retention (amnesia induced by scopolamine). As for the experimental part:
To this end, the method of multiple-trial passive avoidance has been used. This method is well-known for evaluating the effects which a product exerts on the memory and learning (A. FINE et al., Proc. Natl. Acad. Sci. U.S.A., 82, (1985), 5227-5230).
The test is carried out on male Sprague-Dawley rats (160-200 g). which are kept in standard cages throughout the experiment.
The apparatus used is a transparent square cage with 35 cm sides and 25 cm high, fitted with a grid floor which can be electrified. An insulating rubber mat (10×17 cm) is placed on the floor in one of the corners of the cage.
Each animal is subjected to four tests at times 0, 4, 24 and 28 hours. In the first test (time 0), the animal is placed on the rubber mat and the time which it takes to decide to leave this position to explore the cage is recorded. After 20 seconds of exploration, the rat receives an electric shock (3 seconds duration) in the paws, causing a flight reaction. The rat is immediately removed from the apparatus and replaced in its original cage. In the course of the three subsequent tests (times: 4, 24 and 28 hours), the animal is replaced on the rubber mat and the time taken to leave this position is recorded. When the four paws of the animal rest on the grid, it receives an electric shock and is immediately removed from the apparatus.
At the start of the experiment, the rats are divided into 4 homogeneous groups of 15 animals. Thirty minutes before each test, each group of animals is subjected to a predetermined treatment:
Groups 1 and 2 are used in the first experiment and groups 3 and 4 are used in the second experiment.
The differences observed are analyzed statistically by the Mann-Whitney method.

Data set [5] has as its system hyperactivity induced by scopolamine. The settings on record: rats placed in a new environment; in words, literature; cited from earlier work.
For a further data set, the system named is memory. The settings on record: in words, literature; cited from earlier work.
For the next data set, the system named is male NMRI mice. Put plainly: Toxicity, Irwin's test. It is filed as in vivo. As for the experimental part:
Progressive doses of the compound to be tested are administered intraperitoneally to groups of three mice until the lethal dose is reached (dose which causes the death of two animals out of three within 48 hours).

In data set [6] the test system is salivatory effect of oxotremorine (peripheral cholinergic activation). Put plainly: Potentiation of the peripheral cholinergic (salivatory) effect of oxotremorine. The class given is in vivo, mice (male NMRI). The settings on record: 20 minutes after administration at the minimum active dose; in words. How it is done: The degree of peripheral cholinergic activation is measured by the salivatory effect quantified by the following rating system:
score 1: a little saliva is found around the teeth;
score 2: the saliva forms a narrow band around the mouth;
score 4: the saliva wets a surface underneath the chin;
score 6: the saliva runs from the mouth, for example onto the forelegs.
The intermediate scores are not used, and the saliva is wiped away after each observation.
(§1) Male NMRI mice (20 to 25 g) are divided into four groups of five animals, that is to say: one control group and three treated groups.
The compound to be tested is administered intraperitoneally (to the three treated groups) 20 minutes before the administration of the oxotremorine, at a dose which differs for each of the treated groups. […]
(§2) For each of the groups, the individual scores recorded at each observation period are summed: this enables to plot a curve showing the sum of the scores as a function of time, which is characteristic for each group.
(§3) The mean values of the areas under the curves obtained for each of the treated groups are compared with the mean value of the area under the curve corresponding to the control group and is subjected to statistical analysis by the Mann-Whitney method. From this comparison, "a minimum active dose" can be determined. […]

Data set [7] deals with tremogenic effect of oxotremorine (central cholinergic activation). Put plainly: Potentiation of the central cholinergic (tremogenic) effect of oxotremorine. The class given is in vivo, mice (male NMRI). How it is done:
The degree of central cholinergic activation is measured by the tremogenic effect quantified by the following rating system:
score 1: slight and periodic occasional tremors;
score 2: moderate and slight tremors often repeated;
score 4: accentuated tremors, but interrupted by periods of calm;
score 6: very accentuated and almost continuous tremors.
as §1
The compound to be tested is administered intraperitoneally (to the three treated groups) 20 minutes before the administration of the oxotremorine, at a dose which differs for each of the treated groups.
The oxotremorine is administered intraperitoneally to the treated groups and to the control group at a dose of 0.05 mg/kg dissolved in 10 ml/kg of physiological salt solution. […]
as §2, §3

The mark [8] stands for this setting: compound i.p. at the dose of the line + scopolamine 0.5 mg i.p.
The mark [9] stands for this setting: mice, i.p., death of two animals out of three within 48 hours.

Data on nine compounds can be found in US4956363A, “Treatment of cognitive and behavioral disorders associated with aging and with dementia syndromes” (U C B S.A., priority 1988, dated 1990).

Each structure is given as a SMILES string. Entries after “also recorded” stand apart in the source; their conditions may differ.

In the case of `CNC(=O)Oc1ccc2c(c1)[C@]1(C)CCN(C)[C@@H]1N2C` [physostigmine, reference compound], the “activity of physostigmine on the hyperactivity induced by scopolamine” value in data set [1] is “inactive”. Besides, the “Inhibition of the effects of scopolamine on the band from 6.4 to 9.6 Hz in the EEG” value (shortened to “Inhibition of the effects of scopolamine”) in data set [2] is 76.8%. Further, the “effect on the EEG spectrum” value in data set [2] (scopolamine 0.5 mg/kg i.p. in rats, in words) is recorded as “counteracts these variations”. For the same compound, the “Learning, average number of trials (group 2)” value (from here on “Learning, average number”) in data set [3] was 2.30. For the same compound, in [4] (setting [8]), the “Period of remaining on the mat, group 4, 4 hours” value turned out to be 17.8 s; the “Period of remaining on the mat, group 4, 24 hours” value (shortened to “Period of remaining … 24 hours”) was found to be 56.2 s; the “Period of remaining on the mat, group 4, 28 hours” value (from here on “Period of remaining … 28 hours”) was 53.4 s. Also, in [4] (dose active against the amnesing effect of scopolamine, in words), the “relation of active dose to side effects / toxic dose” value was “obtained at a dose which has side effects and is very close to the toxic dose”. The “effect against the amnesing effect of scopolamine” value in data set [4] (in words) is given as “favorable action against the amnesing effect of scopolamine”. Besides, the “effect on exploratory activity” value in data set [5] was “counteracts the hyperactivity induced by scopolamine”. The effect on memory entry with memory was “an improvement in anemic disorders; also recorded: capable of combating the amnesia resulting from the administration of anticholinergic agents”.
As for `CCCc1nc(NC)nc(N2CCOCC2)n1` [Compound 45, 2-(Methylamino)-4-morpholino-6-propyl-1,3,5-triazine], in [2], the “Inhibition of the effects of scopolamine” value worked out at 91.7%. In data set [3], the “Learning, average number” value amounted to 2.00. This compound displayed a Lethal dose in the data set on male NMRI mice (setting [9]) of 821 mg/kg.
As to `CCCc1nc(N)nc(N2CCOCC2)n1` [Compound 44, 2-Amino-4-morpholino-6-propyl-1,3,5-triazine], the “Inhibition of the effects of scopolamine” value in [2] is 100%. Moreover, the “Learning, average number” value in data set [3] was 1.13. Further, the Lethal dose in the data set on male NMRI mice (setting [9]) is reported as 779 mg/kg.
Consider `COC(=O)C1=CCCN(C)C1` [arecoline, methyl 1,2,5,6-tetrahydro-1-methyl-3-pyridinecarboxylate], for which the “potentiation of the salivatory effect of oxotremorine” value in [6] was “no potentiation”. For the same compound, the “potentiation of the tremogenic effect of oxotremorine” value in [7] (20 minutes after administration at the minimum active dose, in words) is recorded as “no potentiation”.
`O=C1CCCN1CC#CCN1CCCC1` [oxotremorine]: the minimal effective dose in [7] (Mus musculus, ip, mice, i.p., approximate, read-out: minimum dose of oxotremorine which causes tremors and salivation) is roughly 0.05 mg/kg.
Consider `CCCc1nc(N2CCOCC2)nc(N(C)C(=O)c2ccccc2)n1.Cl`, for which the “Learning, average number” value in data set [3] is on record as 1.13. Moreover, in [4] (compound i.p. at the dose of the line + scopolamine 0.5 mg i.p., 0 h), the “Period of remaining on the mat, group 4, time 0” value stood at 11.3 s. In [4] (setting [8]), the “Period of remaining on the mat, group 4, 4 hours” value was 88.6 s; the “Period of remaining … 24 hours” value came to 111.5 s; the “Period of remaining … 28 hours” value amounted to 133.5 s. In the data set on male NMRI mice (mouse, in vivo, ip), this compound displayed a Lethal dose of 1133 mg/kg.
On to `CN1[C@@H]2C[C@@H](OC(=O)[C@H](CO)c3ccccc3)C[C@H]1[C@@H]1O[C@@H]12` [scopolamine], for which the “effect on exploratory activity” value in data set [5] is “induces exploratory hyperactivity”. Further, in the data set with memory, the effect on memory result is reported as “gives rise to memory deficiencies similar to those observed in elderly subjects”.
With `CCCc1nc(N2CCOCC2)nc(N(C)C(C)=O)n1`, the “Learning, average number” value in [3] amounted to 2.07. In data set [4] (setting [8]), the “Period of remaining … 24 hours” value is 34.7 s and the “Period of remaining … 28 hours” value stood at 44.5 s. In the data set on male NMRI mice (setting [9]), this compound displayed a Lethal dose of 838 mg/kg.
For `CCCc1nc(NC(CC)CO)nc(N2CCOCC2)n1` (stereo not drawn) the same measures were 2.57, 22.5 s, 52.1 s and 886 mg/kg.
